Assays:
Aromatase [1] = molecular target: T1, Aromatase (Homo sapiens, UniProt P11511); test: Inhibition of aromatase (unknown origin)
T1 sequence (P11511 whole entry): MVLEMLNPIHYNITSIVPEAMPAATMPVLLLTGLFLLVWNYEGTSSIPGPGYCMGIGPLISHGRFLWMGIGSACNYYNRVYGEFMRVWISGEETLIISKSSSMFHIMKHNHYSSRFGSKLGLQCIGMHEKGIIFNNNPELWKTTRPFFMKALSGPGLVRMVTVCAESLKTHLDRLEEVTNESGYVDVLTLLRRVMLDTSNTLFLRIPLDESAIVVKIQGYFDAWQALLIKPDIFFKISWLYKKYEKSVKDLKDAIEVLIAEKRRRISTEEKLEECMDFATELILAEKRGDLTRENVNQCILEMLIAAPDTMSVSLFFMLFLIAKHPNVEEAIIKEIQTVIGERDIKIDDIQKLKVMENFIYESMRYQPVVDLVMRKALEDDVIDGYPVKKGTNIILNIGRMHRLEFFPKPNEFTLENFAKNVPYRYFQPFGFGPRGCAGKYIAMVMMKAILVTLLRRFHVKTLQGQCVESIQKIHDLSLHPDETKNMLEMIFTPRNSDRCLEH

[2] = Cytotoxicity against human HuCCa1 cells by MTT assay; type: functional, cell-based, HuCC-A1
[3] = Cytotoxicity against human MOLT3 cells by XTT assay; type: functional, cell-based; conditions: MOLT-3
Aromatase [4] = molecular target: T1, Aromatase; test: Inhibition of human recombinant aromatase expressed in baculovirus infected insect cells using O-benzylfluorescein benzyl ester as substrate after 30 mins
A549 = test: Cytotoxicity against human A549 cells by MTT assay; type: functional, cell-based
HepG2 = test: Cytotoxicity against human HepG2 cells by MTT assay; type: functional, cell-based
[5] = Homo sapiens, HuCC-A1, read-out: IC50
[6] = Homo sapiens, A549, read-out: IC50
[7] = Homo sapiens, HepG2, read-out: IC50

Row | SMILES | IC50 (Aromatase [1]) [µM] | IC50 (Aromatase [4]) [µM] | IC50 [2, 5] [µM] | IC50 [3] [µM] | IC50 (A549; [6]) [µM] | IC50 (HepG2; hepg2) | IC50 ([2]; hucc-a1) | IC50 (HepG2; [7]) [µM] | IC50 (A549; a549)
1 | COc1cc(O)c([C@@H]2C[C@@H](c3ccccc3)Oc3c(C=O)c(O)cc(O)c32)c(O)c1C(=O)/C=C/c1ccccc1 | 3.3 | – | – | – | – | – | – | – | –
2 | COc1cc(O)c([C@H]2C[C@@H](c3ccccc3)Oc3c(C=O)c(O)cc(O)c32)c(O)c1C(=O)/C=C/c1ccccc1 | 1.8 | – | – | – | – | – | – | – | –
3 | COc1cc(O)c(C=O)c2c1[C@H](O)C[C@@H](c1ccccc1)O2 | – | 0.04 | 130 | 24.3 | 147 | Not Active | – | – | –
4 | COc1c(C)c(OC)c2c(c1C=O)O[C@H](c1ccccc1)C[C@H]2O | – | 1.01 | – | 57.4 | 137 | – | Not Active | 99.6 | –
5 | COc1cc(O)c(C=O)c2c1[C@H](OC)C[C@@H](c1ccccc1)O2 | – | 0.09 | 140 | 41.3 | – | Not Active | – | – | Not Active
6 | COc1cccc2c1C(=O)c1c(O)c3c(c(O)c1C2=O)C[C@@](O)(C(=O)CO)C[C@@H]3O[C@H]1C[C@H](N)[C@H](O)[C@H](C)O1 [DOXORUBICIN] | – | – | 1.1 | – | – | – | – | – | –
7 | COc1cc([C@@H]2c3cc4c(cc3[C@@H](O[C@@H]3O[C@@H]5CO[C@@H](C)O[C@H]5[C@H](O)[C@H]3O)[C@H]3COC(=O)[C@H]23)OCO4)cc(OC)c1O [ETOPOSIDE] | – | – | – | 0.03 | – | – | – | 22.1 | –

Further lines, with some results ahead:

Row | IC50 (Aromatase [1]) [µM] | IC50 (Aromatase [4]) [µM] | SMILES | IC50 [2, 5] [µM] | IC50 [3] [µM] | IC50 (A549; [6]) [µM] | IC50 (HepG2; hepg2) | IC50 ([2]; hucc-a1) | IC50 (HepG2; [7]) [µM] | IC50 (A549; a549)
8 | – | 10.7 | COc1c(C)c(OC)c2c(c1C)O[C@H](c1ccccc1)C[C@H]2O | – | 63.5 | – | – | Not Active | 135 | Not Active
9 | – | 0.08 | COc1c(C)c(O)c(C=O)c2c1[C@H](O)C[C@@H](c1ccccc1)O2 | 143 | 29.8 | – | – | – | 143 | Not Active
10 | – | 0.15 | COc1c(C)c(O)c(C=O)c2c1[C@H](OC)C[C@@H](c1ccccc1)O2 | 125 | 28.5 | 104 | – | – | 145 | –
11 | – | 0.6 | COc1cc(O)c2c(c1C)O[C@H](c1ccccc1)CC2=O | – | – | – | – | – | – | –
12 | – | > 12.5 | COc1c(C)c(O)c2c(c1C)O[C@H](c1ccccc1)CC2=O | – | 72 | – | Not Active | Not Active | – | Not Active
13 | 0.9 | – | O=C1C[C@@H](c2ccccc2)Oc2cc(O)cc(O)c21 [PINOCEMBRIN] | – | – | – | – | – | – | –

From ChEMBL document CHEMBL3132766, “Flavans from Desmos cochinchinensis as potent aromatase inhibitors” (Medchemcomm, 2013)
